This is an account of results in US20230109839A1, “THERAPEUTIC AGENT FOR TAUOPATHIES” (SUMITOMO PHARMA CO., LTD., priority 2020, published 2023).

Assay [1] concerns phosphorylated tau oligomer. The experiment in a line: Evaluation of phosphorylated tau oligomers in brain of APP-Tg mice, Western blotting (Test 4). It is filed as in vivo, mouse. The note with it: for Reducing effect of phosphorylated tau oligomer: 7-10 days, with ABT 1 mg/g-food; for reducing effect of tau oligomer: with food for 7-10 days, ABT 1 mg/g-food depending on the compound, brain, anti-oligomerized tau antibody TOMA-1. How it is done: Test 4: Evaluation of Phosphorylated Tau Oligomers Using APP-Tg Mice
This test is a test to quantify the oligomer of phosphorylated tau in the brain to evaluate the action of a compound. […] The APP-Tg mice used herein were prepared by the method described in Test 3.
The test compound administered with food to APP-Tg mice for 7-10 days. At this time, in order to increase the blood concentration of the test compound, ABT was used in combination with a mixed diet of 1 mg/g-food depending on the compound. After the administration, the brain was collected, and the protein is extracted from the collected brain using TBS (Tris Buffered Saline) or sarcosyl, and then SDS-PAGE (sodium dodecyl sulfate-polyacrylamide gel electrophoresis) of the soluble or insoluble fraction was performed. After that, Western blotting was performed using an anti-oligomerized tau antibody (Anti-Tau, oligomeric, clone TOMA-1), and the effect of the test compound was evaluated by quantifying the band amount of the phosphorylated tau oligomer.
The reducing effect of phosphorylated tau oligomer was calculated by the following formula, and from the calculated values, the results were defined as follows: 0-25%: +, 25-50%: ++, 50-75%: +++, and 75-100%: ++++. The significant difference from the vehicle-administered group was determined using the Student t-test. For the band amount, the value corrected by the β-actin band amount was used.
Reducing effect of phosphorylated tau oligomer={(band amount of oligomerized tau in vehicle-administered group−band amount of oligomerized tau in test compound-administered group)/band amount of oligomerized tau in vehicle-administered group}×100

The test system of assay [2] is APP-Tg mouse. In words: Evaluation of the cognitive function by novel object recognition test (NORT) in APP-Tg mice (Test 3). It is filed as in vivo. The arrangement: key to Discrimination index: (novel − known search time)/(novel + known search time). Particulars: for improvement of cognitive function (NORT), summary of the above results / improvement of cognitive function (NORT): APP-Tg mice; for improvement of cognitive function (NORT), summary of the above results: alone, with Elacridar or with ABT depending on the compound; for Discrimination index: APP-Tg mouse. How it is done:
Test 3: Evaluation of the Cognitive Function by Novel Object Recognition Test (Hereinafter, Also Referred to as “NORT”)
The present test is for evaluating the improvement of cognitive function with the test compounds. When an APP-Tg mouse which is an AD (Alzheimer's disease) model mouse is evaluated by NORT, the memory for a familiar object decreases depending on the time interval between the first trial run (training) and the second trial run (test). For example, if the first trial run is done and 3 hours later the second one is done, there is no difference in the searching times between novel object and known object for the APP-Tg mouse, compared with a healthy mouse. Thus, the APP-Tg mouse suffers from significant amnesia.
The APP-Tg mouse used herein was prepared by constructing an expression cassette linked to human APP751 isoform to which Swedish (K670N/M671L) and Indiana (V717F) mutation were introduced at downstream of mouse Thy-1 promoter, then injecting the expression cassette into a mouse fertilized egg, and transplanting it to a host mouse. The prepared mouse presents with intracerebral AB accumulation and cognitive dysfunction from early on, and thus the mouse can be used for the evaluation of cognitive function. APP-Tg mouse has been also reported in Non-patent literature 6.
To the prepared APP-Tg mouse, the test compound was administered, and then the first trial run was done for the mouse 30 minutes after the intraperitoneal administration or after 10 days of mixed diet administration. The second trial run was done 3 hours after the first trial run, and the searching times between novel object and known object in the second trial were evaluated. The discrimination index was calculated from the searching time for novel object and known object in the second trial run, and the improvement of cognitive function of the test compound was confirmed by comparing the discrimination index with the test compound-unadministered group as an index of the cognitive function. The discrimination index was calculated by the following formula.
Discrimination index={(Searching time for novel object)−(Searching time for known object)}/{(Searching time for novel object)+(Searching time for known object)}
The present test can be also done with a combination with Elacridar (Tokyo Chemical Industry Co., Ltd.). Elacridar can inhibit P-gp and BCRP which are excretion transporters expressed in the blood-brain barrier and thereby Elacridar has the effect of improving the transferability of the test compound to the brain. Eracridal was orally administered to APP-Tg mice at 100 mg/kg 2 hours before the first trial run, and then the test compound was intraperitoneally administered to the mice 30 minutes before the first trial run according to the above method. And, the improvement of cognitive function was evaluated. The significant difference from the vehicle-administered group was determined using the parametric Dunnett multiple comparison test.
And, the present test can be also done with a combination with ABT (1-aminobenzotriazole) (Tokyo Chemical Industry Co., Ltd.). ABT has the effect of improving the blood concentration of the test compound by inhibiting CYP and suppressing metabolism. The test compound and ABT (1 mg/g-food) were administered with food to APP-Tg mice for 10 days, and then the improvement of cognitive function was evaluated according to the above method. The significant difference from the vehicle-administered group was determined using the parametric Dunnett multiple comparison test.

For assay [3], the target named is T1, human Nav1.1 (Homo sapiens, UniProt P35498).
T1 construct: host or cells: HEK293
The experiment in a line: Amplification of Nav1.1-derived voltage-gated sodium current (Nav1.1 current), automated patch clamp (Test 1). Particulars: read-out: Nav1.1 current amplification rate (%). It is filed as cell-based. The procedure, abridged:
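HEK293 cells stably expressing human Nav1.1, restricted to cells with >500 pA current, were recorded by automated voltage-clamp patch clamp with a ramp voltage stimulus. Compounds were applied in HEPES-buffered extracellular solution with 1% DMSO. Amplification (%) = 100×(peak or AUC after/before compound)−100.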
(In patch-clamp work, channel activity is measured electrically.)

Where [4] appears, read: test compound and ABT (1 mg/g-food) administered with food for 10 days.
The mark [5] stands for this setting: dose 0.2 mg/g-food for 10 days, with ABT 1 mg/g-food.
Setting [6] is: dose 2 mg/g-food for 10 days, with ABT 1 mg/g-food.
[7] abbreviates: HEK293, Concentration for evaluation 1 μM, HEK293 cell line stably expressing human Nav1.1.
Where [8] appears, read: dose 60 (mg/g i.p.), with Elacridar 100 mg/kg orally 2 hours before first trial run.
Where [9] appears, read: with Elacridar 100 mg/kg orally 2 hours before first trial run.

“Also recorded” adds a separate entry of the source. Like-named read-outs stand apart in the source and are kept apart here.

Take `CN(c1ccc(=O)n(CC(=O)N2CCc3c(N4CCOCC4)cccc32)n1)C1CCCC1` [Example 565, 6-[cyclopentyl(methyl)amino]-2-{2-[4-(morpholin-4-yl)-2,3-dihydro-1H-indol-1-yl]-2-oxoethyl}pyridazin-3(2H)-one]: the “Reducing effect of phosphorylated tau oligomer” value in assay [1] (dose 0.5 mg/g-food) is “+++ (50-75%: +++)”; in assay [1] (dose 4.5 mg/g-food), “++ (25-50%: ++)”. In addition, in assay [1], the “reducing effect of tau oligomer” value was “some reducing effect of tau oligomer; also recorded: strong reducing effect of tau oligomer”.

On to `CN(c1cnc2cnn(CC(=O)Nc3ccn4ncnc4c3)c2n1)C1CC2(CC2)C1` [Example 630, 2-{6-[methyl(spiro[2.3]hexan-5-yl)amino]-1H-pyrazolo[3,4-b]pyrazin-1-yl}-N-([1,2,4]triazolo[1,5-a]pyridin-7-yl)acetamide], for which the “improvement of cognitive function (NORT), summary of the above results” value (shortened to “improvement … of the above results”) in assay [2] is on record as “some improvement of cognitive function”. Moreover, the “improvement of cognitive function (NORT)” value in assay [2] (setting [4]) is “some improvement of cognitive function”. The Discrimination index in assay [2] (setting [5]) came to 0.04; in assay [2] (setting [6]) it was 0.45. For the same compound, the activation at 1 µM in assay [3] (setting [7]) turned out to be 120%. Moreover, the “Reducing effect of phosphorylated tau oligomer” value in assay [1] (dose 0.2 mg/g-food) and in assay [1] (dose 2 mg/g-food) was “++ (25-50%: ++)” throughout. Moreover, the “reducing effect of tau oligomer” value in assay [1] is “some reducing effect of tau oligomer”.

As to `O=C(Cn1ncc2ncc(N3CCC4(CC4)C(F)(F)C3)nc21)Nc1ccn2ncnc2c1` [Example 609, 2-[6-(4,4-difluoro-6-azaspiro[2.5]octan-6-yl)-1H-pyrazolo[3,4-b]pyrazin-1-yl]-N-([1,2,4]triazolo[1,5-a]pyridin-7-yl)acetamide], the “improvement of cognitive function (NORT)” value in assay [2] (Elacridar orally 100 mg/kg 2 hours before, test compound intraperitoneally 30 minutes before the first trial run, 100 mg/kg) was “some improvement of cognitive function; also recorded: strong improvement of cognitive function”. The “improvement … of the above results” value in assay [2] was “some improvement of cognitive function”. The Discrimination index in assay [2] (setting [8]) and in assay [2] (setting [9]) was 0.29 throughout. For the same compound, the activation at 1 µM in assay [3] (setting [7]) stood at 84%.

On to `Cc1ncccc1N1CCN(C(=O)Cn2nc(C3=CCC(C)CC3)ccc2=O)CC1` (centres unmarked) [Example 410, 6-(4-methylcyclohex-1-en-1-yl)-2-{2-[4-(2-methylpyridin-3-yl)piperazin-1-yl]-2-oxoethyl}pyridazin-3 (2H)-one], for which the activation at 3 µM in assay [3] (HEK293, Concentration for evaluation 3 μM, HEK293 cell line stably expressing human Nav1.1) came out at 66%. Also, the “Reducing effect of phosphorylated tau oligomer” value is given as “+++ (50-75%: +++)” in assay [1] (dose 0.6 mg/g-food) and “+ (0-25%: +)” in assay [1] (dose 2 mg/g-food). Besides, the “reducing effect of tau oligomer” value in assay [1] is “some reducing effect of tau oligomer; also recorded: strong reducing effect of tau oligomer”.

Regarding `Cc1cc(NC(=O)Cn2nc(C3=CCC(C)CC3)ccc2=O)cc(C)n1` (centres unmarked) [Example 364, N-(2,6-dimethylpyridin-4-yl)-2-[3-(4-methylcyclohex-1-en-1-yl)-6-oxopyridazin-1(6H)-yl]acetamide], in assay [3] (setting [7]), the activation at 1 µM was 25%. For the same compound, the “Reducing effect of phosphorylated tau oligomer” value in assay [1] (dose 0.6 mg/g-food) and in assay [1] (dose 2 mg/g-food) was “+ (0-25%: +)” each time.

For the compound `CN(c1cnc2cnn(CC(=O)Nc3ccc(C#N)nc3)c2n1)C1CC2(CC2)C1` [Example 753, N-(6-cyanopyridin-3-yl)-2-{6-[methyl(spiro[2.3]hexan-5-yl)amino]-1H-pyrazolo[3,4-b]pyrazin-1-yl}acetamide], the Discrimination index in assay [2] (dose 0.1 mg/g-food for 10 days, with ABT 1 mg/g-food) stood at 0.21; in assay [2] (dose 4 mg/g-food for 10 days, with ABT 1 mg/g-food), 0.28. For the same compound, the activation at 1 µM in assay [3] (setting [7]) turned out to be 106%. For the same compound, the “Reducing effect of phosphorylated tau oligomer” value in assay [1] (dose 0.1 mg/g-food) and in assay [1] (dose 4 mg/g-food) was “++ (25-50%: ++)” each time. For the same compound, the “reducing effect of tau oligomer” value in assay [1] is given as “some reducing effect of tau oligomer”.

With `CN(c1cnc2cnn(CC(=O)Nc3ccn4ncnc4c3)c2n1)C1CCCC1` [Example 593, 2-{6-[cyclopentyl(methyl)amino]-1H-pyrazolo[3,4-b]pyrazin-1-yl}-N-([1,2,4]triazolo[1,5-a]pyridin-7-yl)acetamide], the “improvement of cognitive function (NORT)” value in assay [2] (Elacridar orally 100 mg/kg 2 hours before, test compound intraperitoneally 30 minutes before the first trial run) is “some improvement of cognitive function”. The “improvement … of the above results” value in assay [2] is “some improvement of cognitive function”. The Discrimination index in assay [2] (setting [8]) came to 0.20; in assay [2] (setting [9]) it was 0.11. Also, in assay [3] (setting [7]), the activation at 1 µM was determined as 78%.

For the compound `CN(c1ncc2cnn(CC(=O)Nc3ccc4ncnn4c3)c2n1)C1CC(C)(C)C1` [Example 821, 2-{6-[(3,3-dimethylcyclobutyl)(methyl)amino]-1H-pyrazolo[3,4-d]pyrimidin-1-yl}-N-([1,2,4]triazolo[1,5-a]pyridin-6-yl)acetamide], the “improvement … of the above results” value in assay [2] was “some improvement of cognitive function”. Besides, in assay [2] (setting [4]), the “improvement of cognitive function (NORT)” value is “some improvement of cognitive function; also recorded: strong improvement of cognitive function”. The Discrimination index stood at 0.30 in assay [2] (setting [5]) and 0.37 in assay [2] (setting [6]). In addition, the activation at 1 µM in assay [3] (HEK293, concentration for evaluation 1 μM, HEK293 stably expressing human Nav1.1) was determined as 116%. Also, the “Reducing effect of phosphorylated tau oligomer” value in assay [1] (dose 0.2 mg/g-food) and in assay [1] (dose 2 mg/g-food) was “+ (0-25%: +)” each time.
